The source of these data is PubChem BioAssay (NCI).

“And” between values parts separate entries of the source, which are not always exact repeats. Equal values may be shown once.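 Values below derive from 48-hour exposures of cells grown in 96-well plates, with endpoints linearly interpolated between the two concentrations bracketing the appropriate inhibition level. Abbreviation: GI50, concentration required for 50% inhibition of growth. The concentration for full growth arrest is given as TGI.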

Among the test systems are 786-0 renal; HOP-92 NSCLC; K-562 leukemia; KM20L2 colon; OVCAR-3 ovarian; OVCAR-4 ovarian; SF-268 CNS; SF-539 CNS; RXF-631 renal; MCF7 breast.
What all share (test): NCI anticancer screen, dose series, 48 h

As to `Cc1cc(NS(=O)(=O)c2ccc(NC(=O)c3cccc4c(Nc5ccc(S(=O)(=O)Nc6cc(C)on6)cc5)c5ccccc5nc34)cc2)no1`, the TGI in the assay with 786-0 renal is 89.8 µM; in the assay with HOP-92 NSCLC it was 41 µM; with K-562 leukemia it was more than 100 µM; in the assay on KM20L2 colon, more than 100 µM; in the assay with OVCAR-3 ovarian, more than 100 µM; in the assay on OVCAR-4 ovarian, more than 100 µM. In addition, the TGI in the assay with SF-268 CNS was more than 100 µM; in the assay on SF-539 CNS, 62 µM.
As for `N#CCC(=O)N/N=C1\C(=O)N(c2ccc(Cl)cc2)C(=O)C(=O)C1c1nc2ccccc2o1` (configuration not stated), the TGI in the assay on 786-0 renal, in the assay with HOP-92 NSCLC, with KM20L2 colon, in the assay with OVCAR-3 ovarian, in the assay with OVCAR-4 ovarian and in the assay on RXF-631 renal was more than 100 µM each time. The TGI in the assay with SF-268 CNS and with SF-539 CNS was more than 100 µM each time.
For the compound `O=C(O)CCC1(Br)CCCCC(Br)C1=O` (configuration not stated), the TGI in the assay on 786-0 renal, in the assay on HOP-92 NSCLC, with K-562 leukemia, in the assay with KM20L2 colon, with OVCAR-3 ovarian and in the assay with OVCAR-4 ovarian was more than 100 µM throughout. Besides, the TGI in the assay with SF-268 CNS and in the assay on SF-539 CNS was more than 100 µM in each case.
For the compound `CC(C)(C)[Si](C)(C)O/N=C\c1ccc(O[Si](C)(C)C(C)(C)C)cc1`, the TGI in the assay on 786-0 renal was more than 100 µM; in the assay with K-562 leukemia, more than 100 µM; with KM20L2 colon, more than 100 µM; in the assay on OVCAR-3 ovarian, 50.9 µM; in the assay with OVCAR-4 ovarian, more than 100 µM; with RXF-631 renal it was 53.5 µM. For the same compound, the TGI in the assay with SF-268 CNS and with SF-539 CNS was more than 100 µM each time.
Consider `O=C(O)C1CCCCN1C(=O)c1ccccc1` (configuration not stated), for which the TGI with 786-0 renal, with HOP-92 NSCLC, in the assay with K-562 leukemia, in the assay on KM20L2 colon, in the assay on OVCAR-3 ovarian and with OVCAR-4 ovarian was more than 100 µM in each case. The TGI with RXF-631 renal, with SF-268 CNS and in the assay with SF-539 CNS was more than 100 µM in each case.
Consider `Clc1ccc(OC2CCO2)cc1Cl` (configuration not stated), for which the TGI in the assay with 786-0 renal, with HOP-92 NSCLC, in the assay with K-562 leukemia, in the assay with KM20L2 colon, in the assay on OVCAR-3 ovarian and in the assay on OVCAR-4 ovarian was more than 100 µM throughout. Further, the TGI with RXF-631 renal, with SF-268 CNS and in the assay on SF-539 CNS was more than 100 µM throughout.
In the case of `CCN(CC)CCNC(=O)c1cccc2cc3ccccc3nc12`, the TGI with 786-0 renal was 32 µM; in the assay on HOP-92 NSCLC, 27.8 µM; in the assay with K-562 leukemia it was more than 100 µM; with OVCAR-3 ovarian it was 61.5 µM; in the assay on RXF-631 renal it was 32.8 µM; in the assay on SF-268 CNS it was 28.2 µM. Besides, the TGI with SF-539 CNS was 16.9 µM.
Take `CC[O-].Cc1ccc2cccc([O-])c2n1.Cc1ccc2cccc([O-])c2n1.Cc1ccc2cccc([O-])c2n1.[Ti+4]`: the GI50 with 786-0 renal is 28.9 µM; with HOP-92 NSCLC it was more than 100 µM; with K-562 leukemia, 11.7 µM; with KM20L2 colon it was more than 54.2 µM; in the assay with OVCAR-3 ovarian it was 34.1 µM; with OVCAR-4 ovarian it was 25 µM. Moreover, the GI50 with RXF-631 renal is 18.8 µM; in the assay with SF-268 CNS, more than 83.5 µM; in the assay on SF-539 CNS it was 40.4 µM. Also, the TGI with 786-0 renal was more than 57.9 µM; in the assay on HOP-92 NSCLC, more than 100 µM; in the assay with K-562 leukemia, 52.2 µM; in the assay with KM20L2 colon, more than 100 µM; in the assay with OVCAR-3 ovarian, more than 100 µM; in the assay on OVCAR-4 ovarian it was more than 68.3 µM. Further, the results for the TGI with RXF-631 renal, in the assay with SF-268 CNS and with SF-539 CNS were more than 65.4 µM, more than 100 µM and more than 100 µM, respectively.
Regarding `C/C(=N/NC(=O)C(N)=O)C(CC(C(=O)Nc1ccccc1C)/C(C)=N\NC(=O)C(N)=O)C(=O)Nc1ccccc1C` (configuration not stated), the TGI in the assay with 786-0 renal, in the assay on HOP-92 NSCLC, with K-562 leukemia, in the assay with KM20L2 colon, in the assay with OVCAR-3 ovarian and in the assay on OVCAR-4 ovarian was more than 100 µM each time. Also, the TGI in the assay with SF-268 CNS and in the assay on SF-539 CNS was more than 100 µM in each case.
For the compound `O=C(Nc1ccccc1Br)c1cccc([N+](=O)[O-])c1O`, the TGI is more than 41 µM with 786-0 renal; 4.99 µM in the assay on HOP-92 NSCLC; more than 100 µM with K-562 leukemia; 36.7 µM with KM20L2 colon; 7.51 µM in the assay on OVCAR-3 ovarian; more than 28.9 µM in the assay on OVCAR-4 ovarian. In addition, the TGI is more than 100 µM in the assay on RXF-631 renal, more than 100 µM in the assay on SF-268 CNS and 35 µM with SF-539 CNS.
For the compound `COc1cc2cc[n+]3c4cc(OC)c(OC)cc4c(C)cc3c2cc1OC`, the TGI in the assay on 786-0 renal, with HOP-92 NSCLC, with K-562 leukemia, in the assay on KM20L2 colon, in the assay on OVCAR-3 ovarian and in the assay with OVCAR-4 ovarian was more than 100 µM each time. The TGI in the assay with RXF-631 renal and in the assay with SF-539 CNS was more than 100 µM in each case.
Turning to `O=C1/C(=C/c2ccccc2)CCC/C1=C\c1ccccc1`, the GI50 is 6.62 µM in the assay on 786-0 renal; 6.48 µM with HOP-92 NSCLC; 20.3 µM and 4.56 µM with K-562 leukemia; 3.46 µM with MCF7 breast; 6.25 µM and 4.04 µM in the assay on OVCAR-3 ovarian; 6.18 µM in the assay on OVCAR-4 ovarian. The GI50 in the assay on SF-268 CNS is 6.72 µM and 5.81 µM; with SF-539 CNS it was 6.9 µM and 22.3 µM. For the same compound, the TGI in the assay on 786-0 renal is 11.9 µM and 25.9 µM and 27.1 µM; with HOP-92 NSCLC, 13 µM and 35.2 µM and 37.3 µM; in the assay with K-562 leukemia, 36.5 µM and 32.9 µM and > 100 µM; in the assay with KM20L2 colon it was 22.2 µM; in the assay on MCF7 breast, 12.4 µM and 21 µM; in the assay with OVCAR-3 ovarian it was 11.3 µM and 24 µM and 13 µM. Also, the TGI is 11.8 µM and 32.4 µM in the assay on OVCAR-4 ovarian; 50.5 µM in the assay on RXF-631 renal; 13.3 µM and 29.5 µM and 20.3 µM with SF-268 CNS; 12.2 µM and 32.7 µM and 53.4 µM in the assay on SF-539 CNS.
Consider `Cc1cc(C(=O)N2CCN(Cc3ccccc3)CC2)c(C)o1`, for which the TGI in the assay on 786-0 renal, in the assay on HOP-92 NSCLC, in the assay on K-562 leukemia, in the assay with KM20L2 colon, with OVCAR-3 ovarian and with OVCAR-4 ovarian was more than 100 µM throughout. The TGI in the assay with SF-268 CNS and in the assay with SF-539 CNS was more than 100 µM throughout.
Consider `C[C@H]1CC(=O)C2=CCCC3(SCCCS3)[C@@H]2[C@H]1CO`, for which the TGI in the assay on 786-0 renal, with HOP-92 NSCLC, with K-562 leukemia, in the assay on OVCAR-3 ovarian, in the assay with OVCAR-4 ovarian and in the assay with RXF-631 renal was more than 100 µM each time. The TGI with SF-268 CNS and in the assay with SF-539 CNS was more than 100 µM in each case.
In the case of `CC1=C(c2cc(C(=O)Nc3ccc(Cl)c(Cl)c3)nc(N)n2)Sc2ccccc2N1`, the TGI in the assay with 786-0 renal, in the assay with HOP-92 NSCLC, in the assay with K-562 leukemia, in the assay with KM20L2 colon, with OVCAR-3 ovarian and in the assay on OVCAR-4 ovarian was more than 100 µM in each case. Further, the TGI with SF-268 CNS and with SF-539 CNS was more than 100 µM in each case.
For the compound `O=C(O)C#CCO`, the TGI in the assay with 786-0 renal, with HOP-92 NSCLC, in the assay on K-562 leukemia, in the assay with OVCAR-3 ovarian, in the assay on OVCAR-4 ovarian and with RXF-631 renal was more than 100 µM in each case. Moreover, the TGI in the assay on SF-268 CNS and in the assay on SF-539 CNS was more than 100 µM each time.
Consider `COC(=O)C1CCC(Nc2cccc(C(F)(F)F)c2)=N1` (configuration not stated), for which the TGI in the assay with 786-0 renal, in the assay on HOP-92 NSCLC, with K-562 leukemia, with OVCAR-3 ovarian, with OVCAR-4 ovarian and in the assay on RXF-631 renal was more than 100 µM each time. Further, the TGI with SF-268 CNS was more than 100 µM.
